Data from PubChem BioAssay (NCI).
“And” between values parts separate entries of the source, which are not always exact repeats. Equal values may be shown once.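 Protocol summary: plate cells (96-well), add compound at 5 concentrations, incubate 48 h, interpolate endpoints linearly. GI50: concentration for 50% inhibition of growth. TGI is the concentration that stops growth completely.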

How the values were obtained:
Experiment in all cases: DTP human tumour cell line panel, 48 h
CCRF-CEM leukemia = system: CCRF-CEM leukemia
HCT-15 colon = system: HCT-15 colon
HOP-62 NSCLC = system: HOP-62 NSCLC
KM12 colon = system: KM12 colon
SNB-19 CNS = system: SNB-19 CNS
SW-620 colon = system: SW-620 colon
T-47D breast = system: T-47D breast
U251 CNS = system: U251 CNS
A498 renal = system: A498 renal
MALME-3M melanoma = system: MALME-3M melanoma

| Compound | GI50 (CCRF-CEM leukemia) | TGI (CCRF-CEM leukemia) | GI50 (HCT-15 colon) | TGI (HCT-15 colon) | GI50 (HOP-62 NSCLC) | TGI (HOP-62 NSCLC) | GI50 (KM12 colon) | TGI (KM12 colon) | GI50 (SNB-19 CNS) | TGI (SNB-19 CNS) | GI50 (SW-620 colon) | TGI (SW-620 colon) | GI50 (T-47D breast) | TGI (T-47D breast) | GI50 (U251 CNS) | TGI (U251 CNS) | TGI (A498 renal) | TGI (MALME-3M melanoma) | GI50 (A498 renal) | GI50 (MALME-3M melanoma) |
| --- | --- | --- | --- | --- | --- | --- | --- | --- | --- | --- | --- | --- | --- | --- | --- | --- | --- | --- | --- | --- |
| Nc1ncnc2c1ncn2C1SC(CO)C(O)C1O (stereo unspecified) | > 100 µM | > 100 µM | 3.81 µM | 31.8 µM | 24.9 µM | 91.2 µM | 23 µM | > 100 µM | 26 µM | 82.8 µM | 17.5 µM | 77.2 µM | 5.24 µM | 26 µM | 27 µM | > 100 µM | – | – | – | – |
| O=C(/C=C/c1ccccc1)c1ccccn1 | – | 45.4 µM and 57.6 µM | – | 24.9 µM and 50 µM | 13.9 µM and 34.7 µM | 29.3 µM and > 100 µM | – | 34.2 µM and 28.5 µM | 15.1 µM and 31.9 µM | 31 µM and > 100 µM | – | 58.9 µM and > 100 µM | – | 31.2 µM and 62.7 µM | – | 30.5 µM and 35.9 µM | 29.6 µM and 37.6 µM | – | – | – |
| C/C(=N\NC(N)=S)c1ccc(Oc2ccccc2)cc1 | – | 37.2 µM | – | 22.5 µM | – | 46.6 µM | – | – | – | 84.5 µM | – | 53.9 µM | – | – | – | 31.3 µM | 29.5 µM | – | – | – |
| CC[C@H]1CNC(=O)CC1CC(=O)OC (stereo partly specified) | – | – | – | > 100 µM | – | > 100 µM | – | > 100 µM | – | > 100 µM | – | > 100 µM | – | – | – | > 100 µM | > 100 µM | > 100 µM | – | – |
| Cc1ccccc1C1N=C2Oc3ccccc3C=C2C(=O)N1 (stereo unspecified) | 4.63 µM | > 100 µM | 2.05 µM | > 100 µM | 3.39 µM | > 100 µM | 15 µM | > 100 µM | > 42.9 µM | > 100 µM | 4.74 µM | > 100 µM | 1.58 µM | > 100 µM | 11.7 µM | > 100 µM | 2.58 µM | – | 0.347 µM | – |
| O=P(c1ccccc1)(c1ccccc1)C1CC=C2CCCCCC2C1 (stereo unspecified) | – | 61.5 µM | – | > 100 µM | – | – | – | > 100 µM | – | 81.6 µM | – | > 10 µM | – | – | – | > 100 µM | 97.7 µM | > 100 µM | – | – |
| O=c1[nH]c(-c2ccncc2)nc2sc3c(c12)CCCCCC3 | > 100 µM | > 100 µM | > 100 µM | > 100 µM | > 100 µM | > 100 µM | > 100 µM | > 100 µM | – | – | > 100 µM | > 100 µM | – | – | > 100 µM | > 100 µM | > 100 µM | > 100 µM | > 100 µM | > 100 µM |
| Cc1nn(-c2ccccc2)c2c1[C@@H](C)[C@H]1CC3(CC4(C)C[C@@H]3C1(C)c1c(C)nn(-c3ccccc3)c1N4C)N2C (stereo partly specified) | – | – | – | – | 18.3 µM | > 100 µM | – | – | > 100 µM | > 100 µM | – | – | 2.64 µM | > 100 µM | – | – | > 100 µM | > 100 µM | > 100 µM | > 100 µM |
| O=C(c1ccccc1)N1CCc2c([nH]c3ccccc23)C1 | – | > 100 µM | – | > 100 µM | – | > 100 µM | – | > 100 µM | – | > 100 µM | – | > 100 µM | – | – | – | > 100 µM | – | > 100 µM | – | – |
| O=C1N(c2ccccc2)C2(O)C(=O)c3ccccc3C2(O)N1c1ccccc1 (stereo unspecified) | – | > 100 µM | – | > 100 µM | – | > 100 µM | – | > 100 µM | – | > 100 µM | – | > 100 µM | – | – | – | > 100 µM | > 100 µM | > 100 µM | – | – |
| COc1cc(Br)c(C2OCCCO2)cc1OCc1ccccc1 | – | > 100 µM | – | > 100 µM | – | > 100 µM | – | > 100 µM | – | > 100 µM | – | > 100 µM | – | – | – | > 100 µM | > 100 µM | – | – | – |
| CCOc1ccc(/C=C/C(=O)c2sc(NNC(C)=O)nc2C)cc1 | – | > 100 µM | – | > 100 µM | – | > 100 µM | – | > 100 µM | – | > 100 µM | – | > 100 µM | – | – | – | > 100 µM | > 100 µM | > 100 µM | – | – |
| O=c1c2cc(F)ccc2sc2c(NCCCNCCO)nc3ccc(F)cc3c12 | 2.24 µM | 5.08 µM | 1.49 µM | 2.91 µM | 1.61 µM | 3.53 µM | 1.84 µM | 3.58 µM | 1.72 µM | 3.29 µM | 1.73 µM | 3.48 µM | 1.94 µM | 4.48 µM | – | – | 7.21 µM | 3.15 µM | 2.24 µM | 1.63 µM |
| O=C(N=Nc1c(O)[nH]c2c(Cl)cc(Cl)cc12)C(=O)Nc1cccc(C(F)(F)F)c1 | – | > 100 µM | – | > 100 µM | – | > 100 µM | – | > 100 µM | – | > 100 µM | – | > 100 µM | – | – | – | > 100 µM | > 100 µM | > 100 µM | – | – |
| N#CCC1CCN(c2nc(Nc3ccc(N4CCC(O)CC4)cc3)c3c(=O)[nH]ncc3n2)CC1 | 1.01 µM | > 100 µM | 0.428 µM | > 100 µM | 0.801 µM | > 100 µM | 0.038 µM | > 100 µM | 5.02 µM | > 100 µM | 0.443 µM | > 100 µM | 2.05 µM | > 100 µM | 1.03 µM | > 100 µM | 1.74 µM | – | 0.342 µM | – |
| O=C(CC1(O)C(=O)Nc2ccc(Br)cc21)c1cccc([N+](=O)[O-])c1 (stereo unspecified) | – | 99.6 µM | – | > 100 µM | – | > 100 µM | – | > 100 µM | – | > 100 µM | – | > 100 µM | – | – | – | > 100 µM | – | > 100 µM | – | – |
| CCc1cccc(CC)c1NC1=CC(=O)C(=O)c2ccccc21 | – | > 100 µM | – | 57.7 µM | – | 40.3 µM | – | 33.2 µM | – | 63.3 µM | – | 31.7 µM | – | – | – | 36.6 µM | 39.5 µM | 31.9 µM | – | – |
| CC1(C)CCC(c2ccc(Cl)cc2)=C(CN2CCN(c3ccc(C(=O)NS(=O)(=O)c4ccc(N[C@H](CCN5CCOCC5)CSc5ccccc5)c(S(=O)(=O)C(F)(F)F)c4)cc3)CC2)C1 | 0.0618 µM | 7.43 µM | 2.02 µM | 4.35 µM | 1.73 µM | 3.26 µM | 1.72 µM | 3.42 µM | 2.68 µM | 9.14 µM | 1.79 µM | 3.8 µM | 2.05 µM | 5.25 µM | 1.9 µM | 3.43 µM | 0.115 µM | – | 0.0191 µM | – |
| COc1ccc2c(c1)c(-c1nc(-c3cn(C)c4ncccc34)cs1)cn2CCCCN1CCCCC1 | – | – | 1.45 µM | 2.8 µM | – | – | 1.7 µM | 3.15 µM | – | – | 1.62 µM | 2.99 µM | – | – | – | – | 3.11 µM | – | 1.66 µM | – |
